Measured values reported in patent US4065460A, “4,5,6,7-Tetrahydro-thieno[3,2-c]-pyridine derivatives and process for their preparation” (Parcor, priority 1975, dated 1977).
Where two headings read alike, the source gives them in different places.

Legend:
[1] = tested on: carrageenin-induced edema; assay: Localized carrageenin-induced edema method (anti-inflammatory action); assay type: in vivo; conditions: Rattus norvegicus, po, rats, 100 mg/kg orally (1 hour prior, simultaneously, 1 hour and 2.5 hours after)
Description: a. Localized carrageenin-induced edema method.
0.1 ml of a 1% carrageenin solution is injected at time 0 in the metatarsal flexor muscles of the right hind limb of rats. The animals of the treated group are administered orally, additionally, 100 mg/kg of the test derivative, respectively 1 hour prior to and then simultaneously with the phlogogenic agent, and then 1 hour and 2.5 hours thereafter. The determinations effected with a ROCH micrometer at times 0, 1 hour, 2 hrs, 3 hrs and 5 hrs after carrageenin administration make it possible to determine, as a function of time, the percent anti-inflammatory activity.

[2] = Acute intravenous toxicity (LD50, method according to MILLER and TAINTER); conditions: mouse, in vivo, Swiss mice, read-out: LD50 /24hrs/kg of the animal
[3] = tested on: Ovalbumin-induced systemic edema; assay: Ovalbumin-induced systemic edema method (anti-inflammatory action); assay type: in vivo; conditions: Rattus norvegicus, po, rats, 100 mg/kg orally (1 hour prior and simultaneously), with respect to control group
Description: b. Ovalbumin-induced systemic edema method
Rats are administered a simultaneous intraperitoneal injection of 1 ml ovalbumin and 0.5 ml of a 1% Evans Blue solution. The animals of the treated group are additionally administered orally 100 mg/kg of the test derivative, one hour prior to ovalbumin administration and then simultaneously with said ovalbumin administration. The intensity of the phenomenon thus induced is rated according to a scale from 1 to 5, according to the progress of the inflammatory syndrome. The measurements are effected after 2 hours and after 3 hours. Thus are determined the mean intensity of the edema and the percent decrease of the edema reaction with respect to the control group.

[4] = tested on: mechanical stimulation (pressure forceps at the base of the tail); assay: Antalgic action, mechanical stimulation method according to Haffner; assay type: in vivo; conditions: mouse, 100 mg/kg oral
Description: This method comprises placing a pressure forceps at the base of the tail of a mouse and recording the number of bites self-inflicted by the animal in its endeavour to remove the forceps. The decrease of the number of bites prior to and subsequently to oral administration of the test compound at a dosage of 100 mg/kg provides a measure of the antalgic activity of the derivatives of this invention.

[5] = after 1 hour, read-out: Percent anti-inflammatory activity after 1 hour
[6] = after 2 hours, read-out: Percent anti-inflammatory activity after 2 hours
[7] = after 5 hours, read-out: Percent anti-inflammatory activity after 5 hours
[8] = after 2 hrs, read-out: Percent decrease of the edema reaction after 2 hrs
[9] = after 3 hrs, read-out: Percent decrease of the edema reaction after 3 hrs
[10] = 0.5 h, after 30 min., read-out: mean percent antalgia after 30 min.
[11] = after 1 hr, read-out: mean percent antalgia after 1 hr
[12] = after 2 hrs, read-out: mean percent antalgia after 2 hrs
[13] = after 3 hrs, read-out: mean percent antalgia after 3 hrs

| SMILES | inhibition in vivo at 100 mg/kg [1, 5] | inhibition in vivo at 100 mg/kg [1, 6] | inhibition in vivo at 100 mg/kg [1, 7] | LD50 at 24 h [2] | inhibition in vivo at 100 mg/kg [3, 8] | inhibition in vivo at 100 mg/kg [3, 9] | inhibition in vivo at 100 mg/kg [4, 10] | inhibition in vivo at 100 mg/kg [4, 11] | inhibition in vivo at 100 mg/kg [4, 12] | inhibition in vivo at 100 mg/kg [4, 13] |
| --- | --- | --- | --- | --- | --- | --- | --- | --- | --- | --- |
| COC1CNCc2ccsc21 (stereo not shown) [Derivative 1, 7-Methoxy-4,5,6,7-tetrahydro-thieno[3,2-c]-pyridine] | 35% | 41% | 50% | 262 mg/kg | 51% | 60% | 75% | 63% | 59% | 51% |
| CCOC1CNCc2ccsc21 (stereo not shown) [Derivative 2, 7-Ethoxy-4,5,6,7-tetrahydro-thieno[3,2-c]-pyridine] | 36% | 44% | 52% | 145 mg/kg | 48% | 59% | 71% | 66% | 62% | 59% |
| CC(C)COC1CNCc2ccsc21 (stereo not shown) [Derivative 3, 7-Isobutoxy-4,5,6,7-tetrahydro-thieno[3,2-c]-pyridine] | 39% | 48% | 58% | 180 mg/kg | 51% | 63% | 68% | 60% | 55% | 48% |
| c1ccc(COC2CNCc3ccsc32)cc1 (stereo not shown) [Derivative 4, 7-Benzyloxy-4,5,6,7-tetrahydro-thieno[3,2-c]-pyridine] | 42% | 50% | 60% | 95 mg/kg | 53% | 64% | 75% | 69% | 66% | 57% |
| COC1(C)CNCc2ccsc21 (stereo not shown) [Derivative 5, 7-Methoxy-7-methyl-4,5,6,7-tetrahydro-thieno[3,2-c]-pyridine] | 39% | 49% | 57% | 138 mg/kg | 49% | 60% | 67% | 61% | 55% | 46% |
| CCOC1(C)CNCc2ccsc21 (stereo not shown) [Derivative 6, 7-Ethoxy-7-methyl-4,5,6,7-tetrahydro-thieno[3,2-c]-pyridine] | 40% | 49% | 61% | 224 mg/kg | 44% | 58% | 66% | 60% | 55% | 48% |
| COC1c2sccc2CNC1C (stereo not shown) [Derivative 7, 7-Methoxy-6-methyl-4,5,6,7-tetrahydro-thieno[3,2-c]-pyridine] | 36% | 48% | 62% | 210 mg/kg | 47% | 58% | 70% | 65% | 61% | 53% |
| CCOC1c2sccc2CNC1C (stereo not shown) [Derivative 8, 7-Ethoxy-6-methyl-4,5,6,7-tetrahydro-thieno[3,2-c]-pyridine] | 38% | 53% | 61% | 129 mg/kg | 44% | 56% | 71% | 65% | 59% | 50% |
| COC1(C)c2sccc2CNC1C (stereo not shown) [Derivative 9, 6,7-Dimethyl-7-methoxy-4,5,6,7-tetrahydro-thieno[3,2-c]-pyridine] | 44% | 52% | 62% | 175 mg/kg | 50% | 63% | 68% | 63% | 56% | 49% |
| COC1c2sccc2CNC1c1ccccc1 (stereo not shown) [Derivative 10, 7-Methoxy-6-phenyl-4,5,6,7-tetrahydro-thieno[3,2-c]-pyridine] | 37% | 50% | 56% | 195 mg/kg | 48% | 57% | 73% | 66% | 60% | 53% |
